Source: ChEMBL document CHEMBL4364281, “Design of wogonin-inspired selective cyclin-dependent kinase 9 (CDK9) inhibitors with potent in vitro and in vivo antitumor activity” (Eur J Med Chem, 2019)
In brackets after ≈: the same amount, converted by molar mass. Activity calls are given as the source filed them. The calls are words filed in the database; no cut-off is given here.

How the values were obtained:
[1] = test system: HL-60; test: Antiproliferative activity against human HL60 cells assessed as reduction in cell viability after 72 hrs by MTT assay; type: functional, cell-based; conditions: HL-60, 72 h
[2] = test system: THP-1; test: Antiproliferative activity against human THP1 cells assessed as reduction in cell viability after 72 hrs by MTT assay; type: functional, cell-based; conditions: THP-1, 72 h
[3] = test system: MCF7; test: Antiproliferative activity against human MCF7 cells assessed as reduction in cell viability after 72 hrs by MTT assay; type: functional, cell-based; conditions: MCF7, 72 h
[4] = test system: BT-549; test: Antiproliferative activity against human BT549 cells assessed as reduction in cell viability after 72 hrs by MTT assay; type: functional, cell-based; conditions: BT-549, 72 h
[5] = test system: HT-29; test: Antiproliferative activity against human HT-29 cells assessed as reduction in cell viability after 72 hrs by MTT assay; type: functional, cell-based; conditions: HT-29, 72 h
[6] = test system: SW480; test: Antiproliferative activity against human SW480 cells assessed as reduction in cell viability after 72 hrs by MTT assay; type: functional, cell-based; conditions: SW480, 72 h
[7] = Antiproliferative activity against human BGC803 cells assessed as reduction in cell viability after 72 hrs by MTT assay; type: functional, cell-based; conditions: BGC803, 72 h
[8] = test system: HeLa; test: Antiproliferative activity against human HeLa cells assessed as reduction in cell viability after 72 hrs by MTT assay; type: functional, cell-based
[9] = test system: L02; test: Cytotoxicity against human LO2 cells assessed as reduction in cell viability after 72 hrs by MTT assay; type: cell-based; conditions: L02, 72 h
[10] = test system: MV4-11; test: Cell cycle arrest in human MV4-11 cells assessed as accumulation at S phase at 0.05 uM after 24 hrs propidium iodide staining based flow cytometry (reference value: 26.06%); type: functional
[11] = test system: MV4-11; test: Cell cycle arrest in human MV4-11 cells assessed as accumulation at G2 phase at 0.05 uM after 24 hrs propidium iodide staining based flow cytometry (reference value: 22.73%); type: functional
[12] = test system: MV4-11; test: Cell cycle arrest in human MV4-11 cells assessed as accumulation at G1 phase at 0.25 uM after 24 hrs after 24 hrs by propidium iodide staining based flow cytometry (reference value: 41.20%); type: functional
[13] = test system: MV4-11; test: Cell cycle arrest in human MV4-11 cells assessed as accumulation at G2 phase at 0.25 uM after 24 hrs propidium iodide staining based flow cytometry (reference value: 22.73%); type: functional
[14] = test system: MV4-11; test: Cell cycle arrest in human MV4-11 cells assessed as accumulation at G2 phase at 1.25 uM after 24 hrs propidium iodide staining based flow cytometry (reference value: 22.73%); type: functional
[15] = test system: MV4-11; test: Induction of apoptosis in human MV4-11 cells by Annexin-V/propidium iodide staining based flow cytometric method; type: functional, cell-based
[16] = test system: MV4-11; test: Induction of apoptosis in human MV4-11 cells assessed as viable cells at 0.05 uM after 24 hrs by Annexin-V/propidium iodide staining based flow cytometric method (reference value: 96.94%); type: functional; conditions: MV4-11, 24 h, read-out: Activity
[17] = test system: MV4-11; test: Induction of apoptosis in human MV4-11 cells assessed as early apoptotic cells at 0.05 uM after 24 hrs by Annexin-V/propidium iodide staining based flow cytometric method (reference value: 0.36%); type: functional
[18] = test system: MV4-11; test: Induction of apoptosis in human MV4-11 cells assessed as necrotic cells at 0.05 uM after 24 hrs by Annexin-V/propidium iodide staining based flow cytometric method (reference value: 2.64%); type: functional
[19] = test system: MV4-11; test: Induction of apoptosis in human MV4-11 cells assessed as viable cells at 0.25 uM after 24 hrs by Annexin-V/propidium iodide staining based flow cytometric method (reference value: 96.94%); type: functional; conditions: MV4-11, 24 h, read-out: Activity
[20] = test system: MV4-11; test: Induction of apoptosis in human MV4-11 cells assessed as early apoptotic cells at 0.25 uM after 24 hrs by Annexin-V/propidium iodide staining based flow cytometric method (reference value: 0.36%); type: functional
[21] = test system: MV4-11; test: Induction of apoptosis in human MV4-11 cells assessed as late apoptotic cells at 0.25 uM after 24 hrs by Annexin-V/propidium iodide staining based flow cytometric method (reference value: 0.07%); type: functional
[22] = test system: MV4-11; test: Induction of apoptosis in human MV4-11 cells assessed as necrotic cells at 0.25 uM after 24 hrs by Annexin-V/propidium iodide staining based flow cytometric method (reference value: 2.64%); type: functional
[23] = test system: MV4-11; test: Induction of apoptosis in human MV4-11 cells assessed as viable cells at 1.25 uM after 24 hrs by Annexin-V/propidium iodide staining based flow cytometric method (reference value: 96.94%); type: functional; conditions: MV4-11, 24 h, read-out: Activity
[24] = test system: MV4-11; test: Induction of apoptosis in human MV4-11 cells assessed as early apoptotic cells at 1.25 uM after 24 hrs by Annexin-V/propidium iodide staining based flow cytometric method (reference value: 0.36%); type: functional
[25] = test system: MV4-11; test: Induction of apoptosis in human MV4-11 cells assessed as late apoptotic cells at 1.25 uM after 24 hrs by Annexin-V/propidium iodide staining based flow cytometric method (reference value: 0.07%); type: functional
[26] = test system: MV4-11; test: Induction of apoptosis in human MV4-11 cells assessed as necrotic cells at 1.25 uM after 24 hrs by Annexin-V/propidium iodide staining based flow cytometric method (reference value: 2.64%); type: functional
[27] = test system: MV4-11; test: Induction of apoptosis in human MV4-11 cells assessed as effect on BCL-2 expression after 4 hrs by Western blot analysis; type: functional, cell-based
[28] = test system: MV4-11; test: Induction of apoptosis in human MV4-11 cells assessed as increase in cleaved PARP level after 24 hrs by Western blot analysis; type: functional, cell-based
[29] = test system: MV4-11; test: Induction of apoptosis in human MV4-11 cells assessed as increase in caspase-3 level after 24 hrs by Western blot analysis; type: functional, cell-based
[30] = test system: MV4-11; test: Antitumor activity against human MV4-11 cells xenografted in BALB/c mouse assessed as tumour growth inhibition at 15 mg/kg, iv administered every other day for 21 days relative to control; type: functional; conditions: MV4-11, iv, 504 h, read-out: TGI
[31] = test system: MV4-11; test: Antitumor activity against human MV4-11 cells xenografted in BALB/c mouse assessed as tumour growth inhibition at 45 mg/kg, iv administered every other day for 21 days relative to control; type: functional; conditions: MV4-11, iv, 504 h, read-out: TGI
[32] = Toxicity in BALB/c mouse assessed as mortality at 15 to 45 mg/kg, iv administered every other day for 21 days; type: organism-based; conditions: in vivo, 504 h
[33] = Toxicity in BALB/c mouse assessed as effect on body weight at 15 to 45 mg/kg, iv administered every other day for 21 days; type: organism-based; conditions: in vivo, 504 h
[34] = target: CDK9/cyclin T1 (Homo sapiens, UniProt P50750)
[35] = test system: HepG2; test: cells; conditions: Homo sapiens, HepG2, 72 h
Description: Antiproliferative activity against human HepG2 cells assessed as reduction in cell viability after 72 hrs by MTT assay

[36] = test system: A549; test: cells; conditions: Homo sapiens, A549, 72 h
Description: Antiproliferative activity against human A549 cells assessed as reduction in cell viability after 72 hrs by MTT assay

[37] = test system: HCT-116; test: cells; conditions: Homo sapiens, HCT-116, 72 h
Description: Antiproliferative activity against human HCT116 cells assessed as reduction in cell viability after 72 hrs by MTT assay

[38] = test system: MV4-11; test: cells; conditions: Homo sapiens, MV4-11, 72 h
Description: Antiproliferative activity against human MV4-11 cells assessed as reduction in cell viability after 72 hrs by MTT assay

[39] = physchem; conditions: methanesulfonic acid buffer, pH 4.5
Description: Solubility of compound in methanesulfonic acid buffer at pH 4.5

[40] = physchem; conditions: buffer, pH 7.4
Description: Hydrophobicity, log D of compound at pH 7.4

Chain of CDK9/cyclin T1 (O60563 whole entry): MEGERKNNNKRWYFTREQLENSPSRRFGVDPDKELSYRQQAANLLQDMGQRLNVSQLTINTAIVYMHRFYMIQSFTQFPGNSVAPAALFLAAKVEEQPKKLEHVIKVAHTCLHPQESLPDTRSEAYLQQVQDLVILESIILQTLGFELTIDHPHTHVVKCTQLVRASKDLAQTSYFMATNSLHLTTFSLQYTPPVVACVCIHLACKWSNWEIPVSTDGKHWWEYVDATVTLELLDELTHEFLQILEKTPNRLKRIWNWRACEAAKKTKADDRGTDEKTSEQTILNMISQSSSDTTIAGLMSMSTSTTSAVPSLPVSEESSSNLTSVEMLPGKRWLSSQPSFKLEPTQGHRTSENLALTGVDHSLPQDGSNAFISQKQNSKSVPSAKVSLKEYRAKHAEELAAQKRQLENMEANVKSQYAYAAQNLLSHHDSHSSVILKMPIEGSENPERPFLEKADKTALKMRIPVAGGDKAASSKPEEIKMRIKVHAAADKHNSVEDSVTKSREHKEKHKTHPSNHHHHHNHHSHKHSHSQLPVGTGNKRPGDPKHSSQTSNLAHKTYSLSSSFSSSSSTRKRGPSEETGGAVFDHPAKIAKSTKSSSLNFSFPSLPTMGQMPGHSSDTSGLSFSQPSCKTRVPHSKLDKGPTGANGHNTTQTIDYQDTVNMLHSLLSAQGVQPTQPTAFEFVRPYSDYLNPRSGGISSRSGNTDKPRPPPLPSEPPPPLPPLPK
Chain of CDK9/cyclin T1 (P50750 whole entry): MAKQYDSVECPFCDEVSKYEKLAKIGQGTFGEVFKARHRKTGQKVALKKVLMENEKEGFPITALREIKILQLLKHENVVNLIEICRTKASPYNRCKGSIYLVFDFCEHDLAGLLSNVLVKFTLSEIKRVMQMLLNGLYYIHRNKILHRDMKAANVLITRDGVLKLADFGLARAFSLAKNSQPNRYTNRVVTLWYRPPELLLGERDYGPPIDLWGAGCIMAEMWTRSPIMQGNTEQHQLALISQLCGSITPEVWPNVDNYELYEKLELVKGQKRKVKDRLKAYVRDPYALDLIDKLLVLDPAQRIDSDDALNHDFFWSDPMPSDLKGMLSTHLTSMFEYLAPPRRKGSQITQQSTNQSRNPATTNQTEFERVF

Compound `COc1cc(O)c2c(=O)cc(-c3ccc(N4CCN(C)CC4)cc3)oc2c1Oc1c(C)n[nH]c1C` has an IC50 [1] of 5.21 µM, an IC50 [2] of 0.79 µM and an IC50 [3] of 0.48 µM. For the same compound, the IC50 [4] was 1.85 µM, the IC50 [5] was 1.8 µM and the IC50 [6] was 1.86 µM. The IC50 [7] was 3.12 µM, the IC50 [8] was 2.32 µM and the IC50 [9] was 15.1 µM. It also gave an Activity [10] of 33.91%, an Activity [11] of 17.82% and an Activity [12] of 55.77%. The Activity [13] was 13.32%, the Activity [14] was 9.01% and the Activity [15] was “Dose-dependent effect”. The viability at 0.05 µM [16] was 74.8%, the Activity [17] was 12.42% and the Activity [18] was 7.27%. It also gave a viability at 0.25 µM [19] of 63.7%, an Activity [20] of 21.25% and an Activity [21] of 7.29%. It also gave an Activity [22] of 7.72%, a viability at 1.25 µM [23] of 58.1% and an Activity [24] of 26.43%. For the same compound, the Activity [25] was 9.05%, the Activity [26] was 6.46% and the Activity [27] was “inactive”. For the same compound, the Activity [28] was “Dose-dependent effect”, the Activity [29] was “Dose-dependent effect” and the inhibition in vivo at 15 mg/kg [30] was 22.9%. The inhibition in vivo at 45 mg/kg [31] was 53%, the Activity [32] was “Non-Toxic” and the Activity [33] was “Non-Toxic”. The IC50 [34] was 0.0199 µM, the IC50 [35] was 2.67 µM and the IC50 [36] was 1.81 µM. For the same compound, the IC50 [37] was 0.39 µM, the IC50 [38] was 0.02 µM and the solubility [39] was 4540 µg/mL (≈ 9.53 mM). It also gave a logD [40] of 2.01.
